Laboratory results from PubChem BioAssay AID180 (DTP/NCI, 2004).
Where “and” joins values, the source holds several entries; their conditions need not be identical. Identical values can stand only once.

Tested on: BDF1 mice, Adenocarcinoma 755 s.c., tumor weight T/C
Test: NCI In Vivo Anticancer Drug Screen. Data for tumor model Adenocarcinoma 755 (subcutaneous) in B6D2F1 (BDF1) mice
Conditions: endpoint: mean tumor weight, higher = larger tumour
In short: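 In vivo antitumor screen on a transplantable tumor line. Result equals the measure in compound-treated animals divided by the same measure in vehicle controls.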

[1] = dose: 25.0 mg/kg/injection, schedule: Q01DX011 (ip), vehicle: saline
[2] = dose: 75.0 mg/kg/injection, schedule: Q01DX011 (ip), vehicle: saline
[3] = dose: 12.5 mg/kg/injection, schedule: Q01DX011 (ip), vehicle: methylcellulose (MC)
[4] = dose: 12.5 mg/kg/injection, schedule: Q01DX011 (ip), vehicle: saline
[5] = dose: 25.0 mg/kg/injection, schedule: Q01DX011 (ip), vehicle: methylcellulose (MC)
[6] = dose: 50.0 mg/kg/injection, schedule: Q01DX011 (ip), vehicle: methylcellulose (MC)
[7] = dose: 6.25 mg/kg/injection, schedule: Q01DX011 (ip), vehicle: methylcellulose (MC)
[8] = dose: 30.0 mg/kg/injection, schedule: Q01DX011 (ip), vehicle: carboxymethylcellulose (CMC)
[9] = dose: 15.0 mg/kg/injection, schedule: Q01DX011 (ip), vehicle: methylcellulose (MC)

CCC(=O)O[C@H]1CC[C@H]2[C@@H]3CC[C@H]4CC(=O)[C@H](C)C[C@]4(C)[C@H]3CC[C@]12C
T/C (dose: 44.13 mg/kg/injection, schedule: Q01DX011 (sc), vehicle: steriod suspending solution): 109 % of control and 115 % of control
T/C (dose: 88.25 mg/kg/injection, schedule: Q01DX011 (sc), vehicle: steriod suspending solution): 156 % of control
T/C (dose: 125.0 mg/kg/injection, schedule: Q01DX011 (sc), vehicle: steriod suspending solution): 101 % of control
T/C (dose: 353.0 mg/kg/injection, schedule: Q01DX011 (sc), vehicle: steriod suspending solution): 154 % of control
T/C (dose: 500.0 mg/kg/injection, schedule: Q01DX011 (sc), vehicle: steriod suspending solution): 176 % of control
T/C (dose: 1000.0 mg/kg/injection, schedule: Q01DX011 (sc), vehicle: steriod suspending solution): 124 % of control

CS(=O)(=O)OCC1OC(O)CC1O (configuration not stated)
T/C [1]: 113 % of control
T/C [2]: 153 % of control

CCSc1ncnc2c1ncn2C1OC(CO)C(O)C1O (configuration not stated)
T/C (dose: 6.25 mg/kg/injection, schedule: Q01DX011 (ip), vehicle: saline): 96 % of control
T/C [3]: 53 % of control
T/C [4]: 49 % of control
T/C [5]: 27 % of control
T/C [1]: 14 % of control
T/C [6]: 10 % of control
T/C (dose: 50.0 mg/kg/injection, schedule: Q01DX011 (ip), vehicle: saline): 4 % of control

CN(C)c1ncnc2c1ncn2C1CCCCO1 (configuration not stated)
T/C (dose: 11.0 mg/kg/injection, schedule: Q01DX011 (ip), vehicle: methylcellulose (MC)): 70 % of control
T/C (dose: 22.5 mg/kg/injection, schedule: Q01DX011 (ip), vehicle: methylcellulose (MC)): 47 % of control
T/C (dose: 45.0 mg/kg/injection, schedule: Q01DX011 (ip), vehicle: methylcellulose (MC)): 47 % of control
T/C (dose: 90.0 mg/kg/injection, schedule: Q01DX011 (ip), vehicle: methylcellulose (MC)): 20 % of control

Cc1ccc(N(O)C(=O)Nc2ccccc2)cc1
T/C (dose: 100.0 mg/kg/injection, schedule: Q01DX011 (ip), vehicle: methylcellulose (MC)): 95 % of control
T/C (dose: 200.0 mg/kg/injection, schedule: Q01DX011 (ip), vehicle: methylcellulose (MC)): 80 % of control

CCCCn1cnc2c(SCc3ccncc3)nc(N)nc21
T/C (dose: 3.12 mg/kg/injection, schedule: Q01DX011 (ip), vehicle: methylcellulose (MC)): 35 % of control
T/C [7]: 106 % of control
T/C [3]: 19 % of control
T/C [5]: 1 % of control and 13 % of control

CCNc1nncs1
T/C (dose: 8.63 mg/kg/injection, schedule: Q01DX011 (ip), vehicle: carboxymethylcellulose (CMC)): 65 % of control
T/C (dose: 14.22 mg/kg/injection, schedule: Q01DX011 (ip), vehicle: carboxymethylcellulose (CMC)): 73 % of control
T/C (dose: 17.25 mg/kg/injection, schedule: Q01DX011 (ip), vehicle: carboxymethylcellulose (CMC)): 77 % of control
T/C (dose: 28.45 mg/kg/injection, schedule: Q01DX011 (ip), vehicle: carboxymethylcellulose (CMC)): 84 % of control
T/C (dose: 31.25 mg/kg/injection, schedule: Q01DX011 (ip), vehicle: methylcellulose (MC)): 62 % of control
T/C (dose: 34.5 mg/kg/injection, schedule: Q01DX011 (ip), vehicle: carboxymethylcellulose (CMC)): 101 % of control
T/C (dose: 56.9 mg/kg/injection, schedule: Q01DX011 (ip), vehicle: carboxymethylcellulose (CMC)): 89 % of control and 80 % of control and 84 % of control
T/C (dose: 62.5 mg/kg/injection, schedule: Q01DX011 (ip), vehicle: methylcellulose (MC)): 49 % of control
T/C (dose: 69.0 mg/kg/injection, schedule: Q01DX011 (ip), vehicle: carboxymethylcellulose (CMC)): 103 % of control
T/C (dose: 75.8 mg/kg/injection, schedule: Q01DX011 (ip), vehicle: carboxymethylcellulose (CMC)): 58 % of control and 75 % of control
T/C (dose: 125.0 mg/kg/injection, schedule: Q01DX011 (ip), vehicle: methylcellulose (MC)): 6 % of control

CN(C)CCO
T/C (dose: 100.0 mg/kg/injection, schedule: Q01DX011 (ip), vehicle: other): 97 % of control

CCCCn1nnc2c(Nc3ccc(Cl)cc3)nc(N)nc21
T/C (dose: 62.5 mg/kg/injection, schedule: Q01DX011 (ip), vehicle: carboxymethylcellulose (CMC)): 96 % of control
T/C (dose: 125.0 mg/kg/injection, schedule: Q01DX011 (ip), vehicle: carboxymethylcellulose (CMC)): 89 % of control
T/C (dose: 250.0 mg/kg/injection, schedule: Q01DX011 (ip), vehicle: carboxymethylcellulose (CMC)): 68 % of control

c1ccc2cc(SCCCN3CCOCC3)ccc2c1
T/C (dose: 37.5 mg/kg/injection, schedule: Q01DX011 (ip), vehicle: methylcellulose (MC)): 90 % of control and 107 % of control
T/C (dose: 37.5 mg/kg/injection, schedule: Q01DX011 (ip), vehicle: saline): 115 % of control
T/C (dose: 75.0 mg/kg/injection, schedule: Q01DX011 (ip), vehicle: methylcellulose (MC)): 103 % of control
T/C [2]: 59 % of control
T/C (dose: 150.0 mg/kg/injection, schedule: Q01DX011 (ip), vehicle: methylcellulose (MC)): 70 % of control
T/C (dose: 150.0 mg/kg/injection, schedule: Q01DX011 (ip), vehicle: saline): 20 % of control

CCCCCCCCCCCCNCCCCCCCCCCCC
T/C (dose: 2.5 mg/kg/injection, schedule: Q01DX011 (ip), vehicle: other): 41 % of control

CC(C)Cn1cnc2c(SC(C)C)nc(N)nc21
T/C [7]: 56 % of control
T/C [3]: 19 % of control
T/C [5]: 4 % of control
T/C [6]: 1 % of control

CC1CCC(n2cnc3c([N+](C)(C)C)ncnc32)O1 (configuration not stated)
T/C (dose: 15.0 mg/kg/injection, schedule: Q01DX011 (ip), vehicle: saline): 58 % of control
T/C (dose: 30.0 mg/kg/injection, schedule: Q01DX011 (ip), vehicle: saline): 35 % of control and 40 % of control
T/C (dose: 60.0 mg/kg/injection, schedule: Q01DX011 (ip), vehicle: saline): 5 % of control
T/C (dose: 120.0 mg/kg/injection, schedule: Q01DX011 (ip), vehicle: saline): 1 % of control

CN(C)S(=O)(=O)c1ncnc2nc[nH]c12
T/C (dose: 32.0 mg/kg/injection, schedule: Q01DX011 (ip), vehicle: other): 26 % of control
T/C (dose: 128.0 mg/kg/injection, schedule: Q01DX011 (ip), vehicle: other): 7 % of control
T/C (dose: 256.0 mg/kg/injection, schedule: Q01DX011 (ip), vehicle: other): 6 % of control

CSc1ncnc2c1ncn2C1OC(CO)C(O)C1O (configuration not stated)
T/C (dose: 1.9 mg/kg/injection, schedule: Q01DX011 (ip), vehicle: saline): 102 % of control and 87 % of control
T/C (dose: 3.0 mg/kg/injection, schedule: Q01DX011 (ip), vehicle: saline): 90 % of control
T/C (dose: 6.0 mg/kg/injection, schedule: Q01DX011 (ip), vehicle: saline): 112 % of control
T/C (dose: 7.5 mg/kg/injection, schedule: Q01DX011 (ip), vehicle: saline): 100 % of control and 120 % of control
T/C [4]: 93 % of control

Cn1c(=O)c2c(nc(N/N=C/c3ccccc3Br)n2C)n(C)c1=O
T/C [8]: 96 % of control
T/C (dose: 120.0 mg/kg/injection, schedule: Q01DX011 (ip), vehicle: carboxymethylcellulose (CMC)): 101 % of control
T/C (dose: 240.0 mg/kg/injection, schedule: Q01DX011 (ip), vehicle: carboxymethylcellulose (CMC)): 89 % of control

Cc1cc(C)c(/C=N/Nc2nc3c(c(=O)n(C)c(=O)n3C)n2C)c(C)c1
T/C [8]: 68 % of control
T/C (dose: 60.0 mg/kg/injection, schedule: Q01DX011 (ip), vehicle: carboxymethylcellulose (CMC)): 106 % of control

C=CC(O)CN1CC1C (configuration not stated) (tested in a mixture with another compound)
T/C (dose: 1.9 mg/kg/injection, schedule: Q01DX011 (ip), vehicle: methylcellulose (MC)): 85 % of control
T/C (dose: 3.75 mg/kg/injection, schedule: Q01DX011 (ip), vehicle: methylcellulose (MC)): 100 % of control
T/C (dose: 7.5 mg/kg/injection, schedule: Q01DX011 (ip), vehicle: methylcellulose (MC)): 97 % of control
T/C [9]: 71 % of control

Oc1ccc2ccccc2c1-c1c(O)ccc2ccccc12
T/C (dose: 12.6 mg/kg/injection, schedule: Q01DX011 (ip), vehicle: other): 79 % of control
T/C (dose: 25.0 mg/kg/injection, schedule: Q01DX011 (ip), vehicle: other): 71 % of control
T/C (dose: 50.0 mg/kg/injection, schedule: Q01DX011 (ip), vehicle: other): 41 % of control

CCc1c(Cl)nc(N)nc1Nc1ccc(Cl)c(Cl)c1
T/C [9]: 117 % of control
T/C (dose: 31.0 mg/kg/injection, schedule: Q01DX011 (ip), vehicle: methylcellulose (MC)): 123 % of control
